From patent US12344610B2, “APOL1 inhibitors and methods of use” (Maze Therapeutics, Inc., priority 2022, dated 2025)
pEC50: −log10 of the molar value.

Tests used:
Assay type in all cases: cell-based
[1] = system: HEK293 cells overexpressing APOL1 G2; assay: APOL1 G2 HEK293 cell rescue assay (reversal of cell death caused by overexpression of APOL1); conditions: Homo sapiens, HEK293, HEK293 overexpressing APOL1 G2; geometric mean of at least 2 assay runs; † = single assay run
Procedure, shortened: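 EC50 is the half-maximal effective concentration for reversing cell death driven by APOL1 G2 overexpression in HEK293 cells. Reported as geometric mean of at least 2 runs on separate days, each run averaging duplicate wells per plate; some values from a single run.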

[2] = system: Trypanosoma brucei Lister 427 VSG221 with APOL1 G0 recombinant protein; assay: APOL1 G0 trypanosome cell rescue assay (Example B5); conditions: Trypanosoma brucei, 20 h, read-out: APOL1 G0 Trypanosome Rescue EC50, Trypanosoma brucei Lister 427 VSG221 with APOL1 G0 recombinant protein, 20 hours, CellTiter-Glo; geometric mean of at least 2 assay runs; † = single assay run
Procedure, shortened: (§1)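 Recombinant mature APOL1 (residues 28-398, His-tag removed, E. coli-expressed, refolded from inclusion bodies, DDM buffer) at […] added with 250 trypanosomes/well in modified HMI-9 media. Duplicate 11-point 2-fold compound series, 0.4% DMSO; 20 h at 37° C, 5% CO2, then CellTiter-Glo luminescence for viability.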

[3] = system: Trypanosoma brucei Lister 427 VSG221 with APOL1 G1 recombinant protein; assay: APOL1 G1 trypanosome cell rescue assay (Example B5); conditions: Trypanosoma brucei, 20 h, read-out: APOL1 G1 Trypanosome Rescue EC50, Trypanosoma brucei Lister 427 VSG221 with APOL1 G1 recombinant protein, 20 hours, CellTiter-Glo; geometric mean of at least 2 assay runs; † = single assay run
Procedure, shortened: as §1

[4] = system: Trypanosoma brucei Lister 427 VSG221 with APOL1 G2 recombinant protein; assay: APOL1 G2 trypanosome cell rescue assay (Example B5); conditions: Trypanosoma brucei, 20 h, read-out: APOL1 G2 Trypanosome Rescue EC50, Trypanosoma brucei Lister 427 VSG221 with APOL1 G2 recombinant protein, 20 hours, CellTiter-Glo; geometric mean of at least 2 assay runs; † = single assay run
Procedure, shortened: as §1

| SMILES | pEC50 [1] | pEC50 [2] | pEC50 [3] | pEC50 [4] |
| --- | --- | --- | --- | --- |
| CS(=O)(=O)C1(c2ccc(OCCN3CCC4(CC3)C(=O)Nc3ccc(Cl)cc34)cc2C(F)(F)F)COC1 [Compound 165, 5-chloro-1′-{2-[4-(3-methanesulfonyloxetan-3-yl)-3-(trifluoromethyl)phenoxy]ethyl}-1,2-dihydrospiro[indole-3,4′-piperidin]-2-one] | 7.67 | 7.54 | 7.47 | 7.95 |
| CS(=O)(=O)C1(c2ccc(OCCN3CCC4(CC3)C(=O)Nc3ccc(C#N)cc34)cc2C(F)(F)F)COC1 [Compound 166, 1′-{2-[4-(3-methanesulfonyloxetan-3-yl)-3-(trifluoromethyl)phenoxy]ethyl}-2-oxo-1,2-dihydrospiro[indole-3,4′-piperidine]-5-carbonitrile] | 7.25 | 7.03 | 6.95 | 7.47 |
| O=C1Nc2ccc(Cl)cc2C12CCN(CCOc1ccc3c(c1)CCNS3(=O)=O)CC2 [Compound 167, 6-(2-{5-chloro-2-oxo-1,2-dihydrospiro[indole-3,4′-piperidin]-1′-yl}ethoxy)-3,4-dihydro-2H-1λ^6,2-benzothiazine-1,1-dione] | 7.37 | 7.01 | 6.83 | 7.46 |
| N#Cc1ccc2c(c1)C1(CCN(CCOc3ccc4c(c3)CCNS4(=O)=O)CC1)C(=O)N2 [Compound 168, 1′-{2-[(1,1-dioxo-3,4-dihydro-2H-1λ^6,2-benzothiazin-6-yl)oxy]ethyl}-2-oxo-1,2-dihydrospiro[indole-3,4′-piperidine]-5-carbonitrile] | 6.46 | 6.30 | 6.20 | 6.72 |
| CN1C(=O)Cc2cc(OCCN3CCC4(CC3)C(=O)Nc3ccc(C#N)cc34)cc(F)c21 [Compound 169, 1′-{2-[(7-fluoro-1-methyl-2-oxo-2,3-dihydro-1H-indol-5-yl)oxy]ethyl}-2-oxo-1,2-dihydrospiro[indole-3,4′-piperidine]-5-carbonitrile] | 6.61 | 6.21 | 6.04 | 6.53 |
| CC1(Oc2ncc(OCCN3CCC4(CC3)C(=O)Nc3ccc(Cl)cc34)cn2)COC1 [Compound 172, 5-chloro-1′-[2-({2-[(3-methyloxetan-3-yl)oxy]pyrimidin-5-yl}oxy)ethyl]-1,2-dihydrospiro[indole-3,4′-piperidin]-2-one] | 7.00 | 6.61 | 6.45 | 6.97 |
| CCS(=O)(=O)C1(c2ccc(OCCN3CCC4(CC3)C(=O)Nc3ccc(C#N)cc34)cc2)COC1 [Compound 174, 1′-(2-{4-[3-(ethanesulfonyl)oxetan-3-yl]phenoxy}ethyl)-2-oxo-1,2-dihydrospiro[indole-3,4′-piperidine]-5-carbonitrile] | 6.98 | 6.40 | 6.32 | 6.86 |
| CS(=O)(=O)C1(c2ccc(OCCN3CCC4(CC3)C(=O)Nc3ccc(Cl)cc34)cc2)CCC1 [Compound 180, 5-chloro-1′-{2-[4-(1-methanesulfonylcyclobutyl)phenoxy]ethyl}-1,2-dihydrospiro[indole-3,4′-piperidin]-2-one] | 7.66 | 7.45 | 7.32 | 7.88 |
| CS(=O)(=O)C1(c2ccc(OCCN3CCC4(CC3)C(=O)Nc3ccc(C#N)cc34)cc2)CCC1 [Compound 181, 1′-{2-[4-(1-methanesulfonylcyclobutyl)phenoxy]ethyl}-2-oxo-1,2-dihydrospiro[indole-3,4′-piperidine]-5-carbonitrile] | 7.35 | 6.80 | 6.63 | 7.15 |
| CS(=O)(=O)C1(c2ccc(OCCN3CCC4(CC3)C(=O)Nc3ccc(Cl)cc34)cc2)CC2(COC2)C1 [Compound 182, 5-chloro-1′-[2-(4-{6-methanesulfonyl-2-oxaspiro[3.3]heptan-6-yl}phenoxy)ethyl]-1,2-dihydrospiro[indole-3,4′-piperidin]-2-one] | 7.00 | 6.40 | 6.32 | 6.86 |
| CS(=O)(=O)C1(c2ccc(OCCN3CCC4(CC3)C(=O)N(CC(F)(F)F)c3ccc(C#N)cc34)cc2)COC1 [Compound 184, 1′-{2-[4-(3-methanesulfonyloxetan-3-yl)phenoxy]ethyl}-2-oxo-1-(2,2,2-trifluoroethyl)-1,2-dihydrospiro[indole-3,4′-piperidine]-5-carbonitrile] | 6.30 | 5.80 | 5.68 | 6.23 |
| CS(=O)(=O)C1(c2ccc(OCCN3CCC4(CC3)C(=O)N(CC(F)(F)F)c3ccc(Cl)cc34)cc2)COC1 [Compound 185, 5-chloro-1′-{2-[4-(3-methanesulfonyloxetan-3-yl)phenoxy]ethyl}-1-(2,2,2-trifluoroethyl)-1,2-dihydrospiro[indole-3,4′-piperidin]-2-one] | 6.95 | 6.51 | 6.32 | 6.85 |
| CS(=O)(=O)C1(c2ccc(OCCN3CCC4(CC3)C(=O)Nc3ccc(Cl)cc34)cc2)CCOCC1 [Compound 188, 5-chloro-1′-{2-[4-(4-methanesulfonyloxan-4-yl)phenoxy]ethyl}-1,2-dihydrospiro[indole-3,4′-piperidin]-2-one] | 7.41 | 7.15 | 7.02 | 7.57 |
| CN1C(=O)C2(CCN(CCOc3cc(F)c(C4(S(C)(=O)=O)COC4)c(F)c3)CC2)c2cc(C#N)ccc21 [Compound 189, 1′-{2-[3,5-difluoro-4-(3-methanesulfonyloxetan-3-yl)phenoxy]ethyl}-1-methyl-2-oxo-1,2-dihydrospiro[indole-3,4′-piperidine]-5-carbonitrile] | 7.23 | 6.78 | 6.61 | 7.21 |
| CC(C)(c1ccc(OCCN2CCC3(CC2)C(=O)Nc2ccc(C#N)cc23)cn1)S(C)(=O)=O [Compound 191, 1′-(2-{[6-(2-methanesulfonylpropan-2-yl)pyridin-3-yl]oxy}ethyl)-2-oxo-1,2-dihydrospiro[indole-3,4′-piperidine]-5-carbonitrile] | 6.89 | 6.60 | 6.52 | 6.98 |
